Patent publication US20240279278A1, “NMU RECEPTOR 2 AGONISTS” (Boehringer Ingelheim International GmbH, priority 2023, published 2024)
Residues, ends and D or L forms follow the SMILES beside them.

Experiments:
Assay type in all cases: cell-based
human NMUR2 receptor [1] = biological target: T1, human NMUR2 receptor (Homo sapiens, UniProt Q9GZQ4); assay: IP1 Gq HTRF assay, activation of human NMUR2 in human plasma; set-up: expressed in transfected cells; host or cells: CHO-K1; conditions: CHO-K1 cells expressing human NMUR2, 100% human plasma; read-out: EC50 (hNMUR2) human plasma
Procedure, shortened: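 EC50 obtained via 4-parameter sigmoidal regression of HTRF IP-One signal (665 nm/620 nm), which falls as intracellular IP1 rises. Stimulation: 1 h, 37° C, peptides in human plasma plus 50 mM LiCl, 1% DMSO final, on NMUR2-expressing CHO-K1 cells, 8 concentrations.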

human NMUR1 receptor = biological target: T2, human NMUR1 receptor (Homo sapiens, UniProt Q9HB89); assay: IP1 Gq HTRF assay, activation of human NMUR1 in buffer; conditions: CHO-K1 cells expressing human NMUR1, stimulation buffer with 0.1% BSA; read-out: EC50 (hNMUR1) buffer
T2 construct: expressed in transfected cells; host or cells: CHO-K1
T2 sequence (Q9HB89 1-426): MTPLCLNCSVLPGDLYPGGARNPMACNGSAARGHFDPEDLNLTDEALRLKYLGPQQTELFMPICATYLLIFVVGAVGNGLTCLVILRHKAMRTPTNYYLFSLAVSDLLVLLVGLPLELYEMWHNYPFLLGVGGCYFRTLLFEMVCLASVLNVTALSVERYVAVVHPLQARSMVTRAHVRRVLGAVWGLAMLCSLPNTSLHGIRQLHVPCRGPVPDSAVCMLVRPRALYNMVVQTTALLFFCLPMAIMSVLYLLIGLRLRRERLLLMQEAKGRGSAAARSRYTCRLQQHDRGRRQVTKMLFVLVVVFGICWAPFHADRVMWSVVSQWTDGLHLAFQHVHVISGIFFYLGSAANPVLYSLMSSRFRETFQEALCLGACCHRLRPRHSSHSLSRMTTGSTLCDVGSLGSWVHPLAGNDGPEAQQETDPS
Procedure, shortened: (§1)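 IP-One HTRF competition (665/620 nm ratio) read after 1 h agonist exposure at 37 °C in pH 7.4 HEPES/HBSS stimulation buffer containing 50 mM LiCl, 0.1% BSA, 1% DMSO. Cells: CHO-K1 stably expressing human NMUR2 or NMUR1. EC50 by 4-parameter nonlinear regression of 8-point curves.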

human NMUR2 receptor [2] = biological target: T1, human NMUR2 receptor; assay: IP1 Gq HTRF assay, activation of human NMUR2 in buffer; set-up: expressed in transfected cells; host or cells: CHO-K1; conditions: CHO-K1 cells expressing human NMUR2, stimulation buffer with 0.1% BSA; read-out: EC50 (hNMUR2) buffer
Procedure, shortened: as §1

T1 sequence (Q9GZQ4 whole entry): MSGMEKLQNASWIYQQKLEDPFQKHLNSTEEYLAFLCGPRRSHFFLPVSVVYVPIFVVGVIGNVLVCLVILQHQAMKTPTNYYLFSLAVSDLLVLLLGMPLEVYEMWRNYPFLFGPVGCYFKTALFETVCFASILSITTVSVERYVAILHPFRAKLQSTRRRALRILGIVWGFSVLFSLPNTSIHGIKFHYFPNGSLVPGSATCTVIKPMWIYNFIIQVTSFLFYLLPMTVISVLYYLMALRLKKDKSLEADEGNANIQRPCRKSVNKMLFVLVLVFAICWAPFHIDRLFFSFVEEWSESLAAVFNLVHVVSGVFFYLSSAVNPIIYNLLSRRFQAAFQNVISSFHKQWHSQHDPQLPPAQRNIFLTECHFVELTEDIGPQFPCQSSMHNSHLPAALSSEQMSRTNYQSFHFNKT

SMILES	EC50 (human NMUR2 receptor [1]) [nM]	EC50 (human NMUR1 receptor) [nM]	EC50 (human NMUR2 receptor [2]) [nM]
CCCC[C@H](NC(=O)[C@H](CC(C)C)N(C)C(=O)[C@H](Cc1ccccc1)NC(=O)[C@H](Cc1ccc(O)cc1)NC(=O)CN1CCN(CCNC(=O)CN(C)C(=O)CN(C)C(=O)CN(C)C(=O)CN(C)C(=O)CN(C)C(=O)CN(C)C(=O)CN(C)C(=O)CN(C)C(=O)CN(C)C(=O)CN(C)C(=O)CN(C)C(=O)CN(C)C(=O)CC[C@H](NC(=O)CC[C@H](NC(=O)CC[C@H](NC(=O)CCCCCCCCCCCCCCCCCCC(=O)O)C(=O)O)C(=O)O)C(=O)O)CC1)C(=O)N[C@@H](CCCNC(=N)N)C(=O)N1CCC[C@H]1C(=O)N[C@@H](CCCNC(=N)N)C(=O)NCC(N)=O [Compound 6, C20DA-gGlu3-Sar12-AEPipAc-Tyr-Phe-NMeLeu-Nle-Arg-Pro-Arg-Gly-NH2]	6.9	120	2
CCCC[C@H](NC(=O)[C@H](CC(C)C)N(C)C(=O)[C@H](Cc1ccccc1)NC(=O)[C@H](Cc1ccc(O)cc1)NC(=O)CN1CCN(CCNC(=O)CN(C)C(=O)CN(C)C(=O)CN(C)C(=O)CN(C)C(=O)CN(C)C(=O)CN(C)C(=O)CN(C)C(=O)CN(C)C(=O)CN(C)C(=O)CN(C)C(=O)CN(C)C(=O)CN(C)C(=O)CC[C@H](NC(=O)CC[C@H](NC(=O)CC[C@H](NC(=O)CCCCCCCCCCCCCCCCCCC(=O)O)C(=O)O)C(=O)O)C(=O)O)CC1)C(=O)N[C@@H](CCN)C(=O)N1CCC[C@H]1C(=O)N[C@@H](CCCNC(=N)N)C(=O)NCC(N)=O [Compound 8, C20DA-gGlu3-Sar12-AEPipAc-Tyr-Phe-NMeLeu-Nle-Dbu-Pro-Arg-Gly-NH2]	9	1000	3.1
CCCC[C@H](NC(=O)[C@H](CC(C)C)N(C)C(=O)[C@H](Cc1ccccc1)NC(=O)[C@H](Cc1ccc(O)cc1)NC(=O)CN1CCN(CCNC(=O)CN(C)C(=O)CN(C)C(=O)CN(C)C(=O)CN(C)C(=O)CN(C)C(=O)CN(C)C(=O)CN(C)C(=O)CN(C)C(=O)CN(C)C(=O)CN(C)C(=O)CN(C)C(=O)CN(C)C(=O)CN(C)C(=O)CN(C)C(=O)CN(C)C(=O)CC[C@H](NC(=O)CC[C@H](NC(=O)CC[C@H](NC(=O)CCCCCCCCCCCCCCCCCCC(=O)O)C(=O)O)C(=O)O)C(=O)O)CC1)C(=O)N[C@@H](CCCNC(=N)N)C(=O)N1CCC[C@H]1C(=O)N[C@@H](CCCNC(=N)N)C(=O)NCC(N)=O [Compound 9, C20DA-gGlu3-Sar15-AEPipAc-Tyr-Phe-NMeLeu-Nle-Arg-Pro-Arg-Gly-NH2] (HELM PEPTIDE1{[O=C(O)CCCCCCCCCCCCCCCCCCC(=O)[*:2]].[gGlu].[gGlu].[gGlu].[Sar].[Sar].[Sar].[Sar].[Sar].[Sar].[Sar].[Sar].[Sar].[Sar].[Sar].[Sar].[Sar].[Sar].[Sar].[O=C(CN1CCN(CCN[*:1])CC1)[*:2]].Y.F.[meL].[Nle].R.P.R.G.[am]}$$$$V2.0)	5.8	220	2.8
CCCC[C@H](NC(=O)[C@H](CC(C)C)N(C)C(=O)[C@H](Cc1ccccc1)NC(=O)[C@H](Cc1ccc(O)cc1)NC(=O)CN1CCN(CCNC(=O)CN(C)C(=O)CN(C)C(=O)CN(C)C(=O)CN(C)C(=O)CN(C)C(=O)CN(C)C(=O)CN(C)C(=O)CN(C)C(=O)CN(C)C(=O)CN(C)C(=O)CN(C)C(=O)CN(C)C(=O)CN(C)C(=O)CN(C)C(=O)CN(C)C(=O)CC[C@H](NC(=O)CC[C@H](NC(=O)CC[C@H](NC(=O)CCCCCCCCCCCCCCCCCCC(=O)O)C(=O)O)C(=O)O)C(=O)O)CC1)C(=O)N[C@@H](CCCNC(=N)N)C(=O)N(C)[C@@H](C)C(=O)N[C@@H](CCCNC(=N)N)C(=O)NCC(N)=O [Compound 10, C20DA-gGlu3-Sar15-AEPipAc-Tyr-Phe-NMeLeu-Nle-Arg-NMeAla-Arg-Gly-NH2] (HELM PEPTIDE1{[O=C(O)CCCCCCCCCCCCCCCCCCC(=O)[*:2]].[gGlu].[gGlu].[gGlu].[Sar].[Sar].[Sar].[Sar].[Sar].[Sar].[Sar].[Sar].[Sar].[Sar].[Sar].[Sar].[Sar].[Sar].[Sar].[O=C(CN1CCN(CCN[*:1])CC1)[*:2]].Y.F.[meL].[Nle].R.[meA].R.G.[am]}$$$$V2.0)	9.8	720	4.1
CCCC[C@H](NC(=O)[C@H](CC(C)C)N(C)C(=O)[C@H](Cc1ccccc1)NC(=O)[C@H](Cc1ccc(O)cc1)NC(=O)CN1CCN(CCNC(=O)CN(C)C(=O)CN(C)C(=O)CN(C)C(=O)CN(C)C(=O)CN(C)C(=O)CN(C)C(=O)CN(C)C(=O)CN(C)C(=O)CN(C)C(=O)CN(C)C(=O)CN(C)C(=O)CN(C)C(=O)CN(C)C(=O)CN(C)C(=O)CN(C)C(=O)CC[C@H](NC(=O)CC[C@H](NC(=O)CC[C@H](NC(=O)CCCCCCCCCCCCCCCCC(=O)O)C(=O)O)C(=O)O)C(=O)O)CC1)C(=O)N[C@@H](CCCNC(=N)N)C(=O)N(C)[C@@H](C)C(=O)N[C@@H](CCCNC(=N)N)C(=O)NCC(N)=O [Compound 11, C18DA-gGlu3-Sar15-AEPipAc-Tyr-Phe-NMeLeu-Nle-Arg-NMeAla-Arg-Gly-NH2] (HELM PEPTIDE1{[O=C(O)CCCCCCCCCCCCCCCCC(=O)[*:2]].[gGlu].[gGlu].[gGlu].[Sar].[Sar].[Sar].[Sar].[Sar].[Sar].[Sar].[Sar].[Sar].[Sar].[Sar].[Sar].[Sar].[Sar].[Sar].[O=C(CN1CCN(CCN[*:1])CC1)[*:2]].Y.F.[meL].[Nle].R.[meA].R.G.[am]}$$$$V2.0)	10.6	1100	2.8
CCCC[C@H](NC(=O)[C@H](CC(C)C)N(C)C(=O)[C@H](Cc1ccccc1)NC(=O)[C@H](Cc1ccc(O)cc1)NC(=O)CN1CCN(CCNC(=O)CN(C)C(=O)CN(C)C(=O)CN(C)C(=O)CN(C)C(=O)CN(C)C(=O)CN(C)C(=O)CN(C)C(=O)CN(C)C(=O)CN(C)C(=O)CN(C)C(=O)CN(C)C(=O)CN(C)C(=O)CC[C@H](NC(=O)CC[C@H](NC(=O)CC[C@H](NC(=O)CCCCCCCCCCCCCCCCC(=O)O)C(=O)O)C(=O)O)C(=O)O)CC1)C(=O)N[C@@H](CCCNC(=N)N)C(=O)N(C)[C@@H](C)C(=O)N[C@@H](CCCNC(=N)N)C(=O)NCC(N)=O [Compound 12, C18DA-gGlu3-Sar12-AEPipAc-Tyr-Phe-NMeLeu-Nle-Arg-NMeAla-Arg-Gly-NH2]	12.9	1000	2.7
CCCC[C@H](NC(=O)[C@H](CC(C)C)N(C)C(=O)[C@H](Cc1ccccc1)NC(=O)[C@H](Cc1ccc(O)cc1)NC(=O)CN1CCN(CCNC(=O)CN(C)C(=O)CN(C)C(=O)CN(C)C(=O)CN(C)C(=O)CN(C)C(=O)CN(C)C(=O)CN(C)C(=O)CN(C)C(=O)CN(C)C(=O)CN(C)C(=O)CN(C)C(=O)CN(C)C(=O)CC[C@H](NC(=O)CC[C@H](NC(=O)CC[C@H](NC(=O)CCCCCCCCCCCCCCCCC(=O)O)C(=O)O)C(=O)O)C(=O)O)CC1)C(=O)N[C@@H](CCCN)C(=O)N(C)[C@@H](C)C(=O)N[C@@H](CCCNC(=N)N)C(=O)NCC(N)=O [Compound 20, C18DA-gGlu3-Sar12-AEPipAc-Tyr-Phe-NMeLeu-Nle-Orn-NMeAla-Arg-Gly-NH2]	12.1	> 1000	2.2
CCCC[C@H](NC(=O)[C@H](CC(C)C)N(C)C(=O)[C@H](Cc1ccccc1)NC(=O)[C@H](Cc1ccc(O)cc1)NC(=O)CN1CCN(CCNC(=O)CN(C)C(=O)CN(C)C(=O)CN(C)C(=O)CN(C)C(=O)CN(C)C(=O)CN(C)C(=O)CN(C)C(=O)CN(C)C(=O)CN(C)C(=O)CN(C)C(=O)CN(C)C(=O)CN(C)C(=O)CN(C)C(=O)CN(C)C(=O)CN(C)C(=O)CC[C@H](NC(=O)CC[C@H](NC(=O)CC[C@H](NC(=O)CCCCCCCCCCCCCCCCC(=O)O)C(=O)O)C(=O)O)C(=O)O)CC1)C(=O)N[C@@H](CCCN)C(=O)N1CCC[C@H]1C(=O)N[C@@H](CCCNC(=N)N)C(=O)NCC(N)=O [Compound 21, C18DA-gGlu3-Sar15-AEPipAc-Tyr-Phe-NMeLeu-Nle-Orn-Pro-Arg-Gly-NH2] (HELM PEPTIDE1{[O=C(O)CCCCCCCCCCCCCCCCC(=O)[*:2]].[gGlu].[gGlu].[gGlu].[Sar].[Sar].[Sar].[Sar].[Sar].[Sar].[Sar].[Sar].[Sar].[Sar].[Sar].[Sar].[Sar].[Sar].[Sar].[O=C(CN1CCN(CCN[*:1])CC1)[*:2]].Y.F.[meL].[Nle].[Orn].P.R.G.[am]}$$$$V2.0)	8.7	> 1000	2.6
